{"source": "paper PMC2636818", "about": "“Atomic structures and functional implications of the archaeal RecQ-like helicase Hjm” (BMC Structural Biology, 2009)", "key": {"PfuHjm": {"molecular_target": "T1, PfuHjm (Pyrococcus furiosus, UniProt O73946)", "T1 construct": "gene hel308; full-length 720 residues, recombinant from pET21d (pHJM100) in E. coli BL21 codonPlus (DE3)-RIL; C-terminal ~60 (Form 1) or 20 (Form 2) residues disordered; one molecule per asymmetric unit in Form 1", "T1 sequence (O73946 1-720)": "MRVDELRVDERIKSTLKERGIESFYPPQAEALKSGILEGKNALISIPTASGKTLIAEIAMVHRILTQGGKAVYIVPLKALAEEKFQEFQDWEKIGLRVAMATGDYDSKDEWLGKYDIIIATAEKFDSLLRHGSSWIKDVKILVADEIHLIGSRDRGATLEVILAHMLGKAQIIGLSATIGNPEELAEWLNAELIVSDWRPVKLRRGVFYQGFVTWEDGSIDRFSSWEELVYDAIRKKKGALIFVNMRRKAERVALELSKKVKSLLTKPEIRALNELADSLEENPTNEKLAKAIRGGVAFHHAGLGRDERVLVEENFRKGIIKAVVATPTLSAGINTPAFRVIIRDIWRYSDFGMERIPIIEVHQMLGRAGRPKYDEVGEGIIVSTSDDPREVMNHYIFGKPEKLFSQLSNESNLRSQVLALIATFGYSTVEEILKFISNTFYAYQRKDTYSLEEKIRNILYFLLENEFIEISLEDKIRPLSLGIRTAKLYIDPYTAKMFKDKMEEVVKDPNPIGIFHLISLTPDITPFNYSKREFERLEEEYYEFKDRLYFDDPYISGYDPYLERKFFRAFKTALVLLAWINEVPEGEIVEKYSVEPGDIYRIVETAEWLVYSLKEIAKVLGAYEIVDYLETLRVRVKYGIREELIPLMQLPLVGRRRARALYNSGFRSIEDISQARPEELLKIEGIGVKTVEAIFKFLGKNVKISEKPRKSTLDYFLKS", "assay": "X-ray crystal structure, soaked crystal", "type": "binding", "settings": "Form 1 crystal soaked with 1 mM ATPgammaS, ADP modelled as hydrolysed product; 100 mM citrate pH 5.0, 1.6 M ammonium sulfate; 2.4 A; nucleotide site"}, "[1]": {"molecular_target": "T2, PfuHjm (RecQ-like helicase Hjm, Hel308 family) (Pyrococcus furiosus, UniProt O73946 1-720)", "T2 sequence": "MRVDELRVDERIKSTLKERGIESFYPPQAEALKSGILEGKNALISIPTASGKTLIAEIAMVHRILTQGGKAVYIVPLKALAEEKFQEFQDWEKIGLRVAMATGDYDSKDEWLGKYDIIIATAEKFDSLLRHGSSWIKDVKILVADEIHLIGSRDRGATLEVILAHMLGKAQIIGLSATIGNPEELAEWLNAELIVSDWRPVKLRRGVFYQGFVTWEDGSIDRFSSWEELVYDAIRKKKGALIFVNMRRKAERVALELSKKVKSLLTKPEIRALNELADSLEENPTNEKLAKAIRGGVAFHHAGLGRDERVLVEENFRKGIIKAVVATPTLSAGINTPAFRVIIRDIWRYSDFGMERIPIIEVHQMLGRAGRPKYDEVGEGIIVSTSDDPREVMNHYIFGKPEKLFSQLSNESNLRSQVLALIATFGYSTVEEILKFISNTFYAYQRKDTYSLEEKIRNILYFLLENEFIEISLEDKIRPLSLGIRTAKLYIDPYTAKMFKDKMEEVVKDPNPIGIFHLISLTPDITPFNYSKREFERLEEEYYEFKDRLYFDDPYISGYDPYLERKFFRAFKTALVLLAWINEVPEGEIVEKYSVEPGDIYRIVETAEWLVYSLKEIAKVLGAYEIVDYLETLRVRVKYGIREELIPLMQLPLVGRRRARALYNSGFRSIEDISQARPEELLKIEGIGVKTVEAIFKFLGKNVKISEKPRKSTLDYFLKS", "assay": "negative-stain single-particle EM (23 A) of complex purified by gel filtration; no nucleotide added; 50 mM Tris-HCl pH 8.0, 0.15 M NaCl, 0.5 mM EDTA, 1 mM DTT, 10% glycerol, room temperature, 20 min, 1:1 protein/DNA", "settings": "protein: recombinant; hairpin with 3' overhang"}}, "data": [{"molecule": "Nc1ncnc2c1ncn2[C@@H]1O[C@H](COP(=O)(O)OP(=O)(O)O)[C@@H](O)[C@H]1O", "note": "[ADP]", "values": [{"measurement": "X-ray crystal structure, soaked crystal", "setting": "PfuHjm", "result": "electron density corresponding to the hydrolyzed product ADP, rather than the soaked ATPγS"}]}, {"molecule": "AGCACTGCTATTCCCTAGCAGTGCTAGATGCACGAC (structured_DNA)", "note": "[3' overhang hairpin DNA]", "values": [{"measurement": "binding result", "setting": "[1]", "result": "binds"}]}]}
